Results published in patent publication US20240217947A1, “Morpholinylquinazoline Compound, Pharmaceutical compositions thereof and Use Thereof” (SHANGHAI YINGLI PHARMACEUTICAL CO., LTD, priority 2022, published 2024).

Experiments:
PI3Kδ = PI3Kδ (Homo sapiens, UniProt O00329); assay: PI3Kδ enzyme activity inhibition IC50 evaluation assay (ADP-Glo Kinase Assay); assay type: biochemical; settings: ATP 25 μM, PIP2 50 μg/mL, 1 hour room temperature, read-out: PI3K-δ IC50
Procedure: (§1) Effec Example 1 IC50 evaluation assay for PI3Kα, PI3Kδ, PI3Kβ and PI3Kγ enzyme activity inhibition
(§2) The experiment was performed using the ADP-Glo Kinase Assay kit, following the instructions. The following buffer solutions were prepared: 50 mM HEPES, pH 7.5, 3 mM MgCl2, 1 mM EGTA, 100 mM NaCl, 0.03% CHAPS, 2 mM DTT. The test compound samples were dissolved in DMSO and added to the screening system at a certain starting concentration such as 10 μM, 3-fold dilution, while setting up both DMSO control and no kinase control. The optimal concentrations of PI3Kα, PI3Kδ, PI3Kβ and PI3Kγ enzymes, substrate (PIP2) and ATP were prepared in buffer. The enzyme reaction system included: buffer, ATP 25 μM, kinase substrate (PIP2, 50 μg/mL), kinases [PI3Kα (0.15 μg/mL), PI3Kδ (1.2 μg/mL), PI3Kβ (0.3 μg/mL) and PI3Kγ (2.5 μg/mL)], etc. The reaction system was reacted at room temperature for 1 hour. The reaction was terminated by adding a termination reagent (ADP-Glo reagent, 5 μL), and the ADP content in the system was detected using a detection reagent (Kinase Detection Reagent, 10 μL). Signal data were collected using the Envision instrument. Calculate the percentage of (%) inhibition according to the following formula: % inhibition=(DMSO control signal value−sample signal value)/(DMSO control signal value−no-kinase control signal value). The IC50 value was obtained by fitting the curve using the formula Y=Bottom+(Top-Bottom)/(1+(IC50/X)^HillSlope).

HDAC6 = target: T1, HDAC6 (Homo sapiens, UniProt Q9UBN7); assay: HDAC6 enzyme activity inhibition IC50 evaluation experiment; assay type: biochemical; settings: HDAC6 5 nM, acetylated peptide 11 μM, trypsin, fluorescence
T1 sequence (Q9UBN7 1-1215): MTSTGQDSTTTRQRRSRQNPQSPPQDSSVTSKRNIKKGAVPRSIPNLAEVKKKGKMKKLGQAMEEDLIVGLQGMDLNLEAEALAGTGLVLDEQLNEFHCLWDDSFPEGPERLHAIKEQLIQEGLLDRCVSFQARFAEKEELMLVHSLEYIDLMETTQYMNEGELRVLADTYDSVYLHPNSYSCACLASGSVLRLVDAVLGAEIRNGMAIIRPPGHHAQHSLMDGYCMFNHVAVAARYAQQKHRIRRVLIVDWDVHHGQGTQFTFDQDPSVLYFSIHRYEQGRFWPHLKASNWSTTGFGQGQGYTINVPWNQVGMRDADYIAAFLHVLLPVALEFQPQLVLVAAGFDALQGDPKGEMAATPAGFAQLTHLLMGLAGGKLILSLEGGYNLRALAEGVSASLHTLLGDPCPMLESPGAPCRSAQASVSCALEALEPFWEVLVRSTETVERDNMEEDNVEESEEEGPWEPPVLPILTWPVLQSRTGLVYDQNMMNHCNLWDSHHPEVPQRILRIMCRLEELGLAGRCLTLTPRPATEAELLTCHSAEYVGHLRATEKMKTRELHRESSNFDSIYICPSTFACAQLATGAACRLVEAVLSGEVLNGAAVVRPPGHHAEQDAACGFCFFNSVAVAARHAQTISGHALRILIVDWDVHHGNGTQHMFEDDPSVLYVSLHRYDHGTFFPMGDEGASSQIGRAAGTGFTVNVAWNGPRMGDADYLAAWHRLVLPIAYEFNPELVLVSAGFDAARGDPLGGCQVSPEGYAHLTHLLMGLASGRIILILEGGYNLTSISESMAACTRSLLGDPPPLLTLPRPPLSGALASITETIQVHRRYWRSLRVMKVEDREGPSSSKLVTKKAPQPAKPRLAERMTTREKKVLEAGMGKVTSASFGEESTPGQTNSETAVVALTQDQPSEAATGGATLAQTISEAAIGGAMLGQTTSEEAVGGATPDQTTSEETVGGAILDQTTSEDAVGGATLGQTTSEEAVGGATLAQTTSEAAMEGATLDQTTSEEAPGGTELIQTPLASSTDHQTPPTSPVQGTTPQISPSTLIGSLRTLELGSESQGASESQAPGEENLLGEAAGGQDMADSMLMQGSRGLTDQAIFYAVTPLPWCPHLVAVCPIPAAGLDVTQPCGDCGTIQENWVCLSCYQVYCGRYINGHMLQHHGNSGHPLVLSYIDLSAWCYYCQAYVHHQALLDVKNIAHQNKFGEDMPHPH
Procedure: (§3) Effect Example 2 HDAC1, HDAC2, HDAC3, HDAC6 enzyme activity inhibition IC50 evaluation experiment
(§4) Buffer solution (50 mM Tris 7.5, 0.01% Tween-20, 50 mM NaCl) was prepared according to the kit instructions, and the enzyme solution and substrate solution (acetylated peptide with the addition of trypsin) were prepared using the buffer solution. The test compound samples were dissolved with DMSO and added to the screening system at a certain starting concentration such as 10 μM, 3-fold dilution, while setting up a DMSO control and no-enzyme control. The enzyme reaction system includes: buffer, enzyme [final concentration: HDAC1=10 nM, HDAC2=4 nM, HDAC3=7 nM, HDAC6=5 nM], substrate (acetylated peptide) [final concentration: Peptide(HDAC1)=8 μM, Peptide(HDAC2)=10 μM, Peptide(HDAC3)=5 μM, Peptide(HDAC6)=11 μM], trypsin [final concentration: Trypsin(HDAC1,2,3)=0.05 μM, Trypsin(HDAC6)=0.1 μM], etc. The enzymes and compounds were reacted at room temperature for 15 min. After adding the substrate and Trypsin, centrifugation was performed for 1 min, and the fluorescence signal data (excitation wavelength 355 nM/emission wavelength 460 nm) was read continuously for 60 min using Envision, and the linear reaction segment was selected to obtain the slope and thus calculate the inhibition rate at that concentration. The IC50 value was obtained by fitting the curve using the formula Y=Bottom+(Top-Bottom)/(1+(IC50/X)^HillSlope).

HDAC1 = HDAC1 (Homo sapiens, UniProt Q13547); assay: HDAC1 enzyme activity inhibition IC50 evaluation experiment; assay type: biochemical; settings: HDAC1 10 nM, acetylated peptide 8 μM, trypsin, fluorescence
Procedure: as §3, §4

HDAC2 = HDAC2 (Homo sapiens, UniProt Q92769); assay: HDAC2 enzyme activity inhibition IC50 evaluation experiment; assay type: biochemical; settings: HDAC2 4 nM, acetylated peptide 10 μM, trypsin, fluorescence
Procedure: as §3, §4

PI3Kα = PI3Kα (Homo sapiens, UniProt P42336); assay: PI3Kα enzyme activity inhibition IC50 evaluation assay (ADP-Glo Kinase Assay); assay type: biochemical; settings: ATP 25 μM, PIP2 50 μg/mL, 1 hour room temperature, read-out: PI3K-α IC50
Procedure: as §1, §2

PI3Kβ = PI3Kβ (Homo sapiens, UniProt P42338); assay: PI3Kβ enzyme activity inhibition IC50 evaluation assay (ADP-Glo Kinase Assay); assay type: biochemical; settings: ATP 25 μM, PIP2 50 μg/mL, 1 hour room temperature, read-out: PI3K-β IC50
Procedure: as §1, §2

PI3Kγ = PI3Kγ (Homo sapiens, UniProt P48736); assay: PI3Kγ enzyme activity inhibition IC50 evaluation assay (ADP-Glo Kinase Assay); assay type: biochemical; settings: ATP 25 μM, PIP2 50 μg/mL, 1 hour room temperature, read-out: PI3K-γ IC50
Procedure: as §1, §2

[1] = tested on: relapsed and/or refractory B-cell malignant hematologic neoplasms; settings: patients with relapsed and/or refractory B-cell malignant hematologic neoplasms, orally 80 mg once daily for 4 weeks; cited from earlier work

HDAC1, sequence (Q13547 whole entry, species assumed): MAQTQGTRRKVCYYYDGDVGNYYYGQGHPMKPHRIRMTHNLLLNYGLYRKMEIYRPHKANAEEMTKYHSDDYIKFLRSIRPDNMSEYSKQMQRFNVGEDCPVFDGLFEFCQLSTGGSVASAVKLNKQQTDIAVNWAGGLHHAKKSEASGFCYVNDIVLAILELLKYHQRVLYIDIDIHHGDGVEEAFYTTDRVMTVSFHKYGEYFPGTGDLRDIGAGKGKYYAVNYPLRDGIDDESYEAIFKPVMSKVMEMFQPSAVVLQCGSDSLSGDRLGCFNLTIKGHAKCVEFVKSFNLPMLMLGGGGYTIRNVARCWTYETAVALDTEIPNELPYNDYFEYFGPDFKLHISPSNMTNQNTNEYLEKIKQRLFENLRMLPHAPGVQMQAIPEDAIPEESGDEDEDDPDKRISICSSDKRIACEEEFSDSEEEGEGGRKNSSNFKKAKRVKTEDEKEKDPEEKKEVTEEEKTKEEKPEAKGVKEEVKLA
PI3Kδ, sequence (O00329 whole entry, species assumed): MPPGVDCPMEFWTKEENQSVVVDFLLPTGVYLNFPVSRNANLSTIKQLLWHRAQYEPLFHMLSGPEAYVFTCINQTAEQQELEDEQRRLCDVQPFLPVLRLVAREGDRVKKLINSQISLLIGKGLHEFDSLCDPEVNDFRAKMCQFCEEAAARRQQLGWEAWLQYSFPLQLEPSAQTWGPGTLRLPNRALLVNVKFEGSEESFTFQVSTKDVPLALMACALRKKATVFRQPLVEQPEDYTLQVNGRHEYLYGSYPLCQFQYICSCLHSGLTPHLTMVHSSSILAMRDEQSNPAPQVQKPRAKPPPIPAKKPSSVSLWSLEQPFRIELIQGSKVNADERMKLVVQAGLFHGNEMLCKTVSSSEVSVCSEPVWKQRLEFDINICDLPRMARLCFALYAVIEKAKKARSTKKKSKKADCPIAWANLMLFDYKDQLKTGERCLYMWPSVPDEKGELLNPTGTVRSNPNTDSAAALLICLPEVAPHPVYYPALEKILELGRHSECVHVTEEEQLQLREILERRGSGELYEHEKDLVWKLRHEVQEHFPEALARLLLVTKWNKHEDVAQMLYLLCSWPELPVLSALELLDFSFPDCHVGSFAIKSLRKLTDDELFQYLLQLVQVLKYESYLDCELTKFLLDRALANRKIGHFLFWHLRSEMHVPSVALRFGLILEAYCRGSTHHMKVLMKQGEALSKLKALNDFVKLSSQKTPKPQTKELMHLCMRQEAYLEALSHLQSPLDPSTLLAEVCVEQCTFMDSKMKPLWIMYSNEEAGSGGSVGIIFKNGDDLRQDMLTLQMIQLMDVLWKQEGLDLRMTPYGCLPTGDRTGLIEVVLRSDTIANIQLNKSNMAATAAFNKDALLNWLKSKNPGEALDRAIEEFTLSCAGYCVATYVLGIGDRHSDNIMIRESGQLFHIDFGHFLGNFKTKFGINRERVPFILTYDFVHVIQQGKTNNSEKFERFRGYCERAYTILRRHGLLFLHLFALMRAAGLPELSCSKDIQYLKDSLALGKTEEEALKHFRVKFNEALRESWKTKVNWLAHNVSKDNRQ
PI3Kδ, sequence (P27986 whole entry partner, species assumed): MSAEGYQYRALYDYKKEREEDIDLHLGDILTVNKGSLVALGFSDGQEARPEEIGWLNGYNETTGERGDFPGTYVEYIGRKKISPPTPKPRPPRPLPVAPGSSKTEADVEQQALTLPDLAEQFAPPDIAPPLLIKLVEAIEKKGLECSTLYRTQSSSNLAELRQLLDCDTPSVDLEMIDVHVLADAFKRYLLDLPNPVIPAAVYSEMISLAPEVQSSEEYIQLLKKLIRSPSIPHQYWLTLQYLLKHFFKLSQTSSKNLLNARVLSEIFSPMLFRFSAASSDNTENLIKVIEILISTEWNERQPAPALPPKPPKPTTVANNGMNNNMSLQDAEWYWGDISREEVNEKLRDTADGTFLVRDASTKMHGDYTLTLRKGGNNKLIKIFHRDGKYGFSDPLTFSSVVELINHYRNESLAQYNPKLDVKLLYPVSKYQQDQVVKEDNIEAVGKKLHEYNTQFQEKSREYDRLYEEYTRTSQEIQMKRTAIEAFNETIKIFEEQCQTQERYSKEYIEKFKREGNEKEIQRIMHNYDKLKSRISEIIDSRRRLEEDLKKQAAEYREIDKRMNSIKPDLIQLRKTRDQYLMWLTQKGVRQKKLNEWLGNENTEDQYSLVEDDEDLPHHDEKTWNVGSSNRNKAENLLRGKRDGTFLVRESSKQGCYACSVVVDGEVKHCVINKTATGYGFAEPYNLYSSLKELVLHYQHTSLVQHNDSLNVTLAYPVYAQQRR
HDAC2, sequence (Q92769 whole entry, species assumed): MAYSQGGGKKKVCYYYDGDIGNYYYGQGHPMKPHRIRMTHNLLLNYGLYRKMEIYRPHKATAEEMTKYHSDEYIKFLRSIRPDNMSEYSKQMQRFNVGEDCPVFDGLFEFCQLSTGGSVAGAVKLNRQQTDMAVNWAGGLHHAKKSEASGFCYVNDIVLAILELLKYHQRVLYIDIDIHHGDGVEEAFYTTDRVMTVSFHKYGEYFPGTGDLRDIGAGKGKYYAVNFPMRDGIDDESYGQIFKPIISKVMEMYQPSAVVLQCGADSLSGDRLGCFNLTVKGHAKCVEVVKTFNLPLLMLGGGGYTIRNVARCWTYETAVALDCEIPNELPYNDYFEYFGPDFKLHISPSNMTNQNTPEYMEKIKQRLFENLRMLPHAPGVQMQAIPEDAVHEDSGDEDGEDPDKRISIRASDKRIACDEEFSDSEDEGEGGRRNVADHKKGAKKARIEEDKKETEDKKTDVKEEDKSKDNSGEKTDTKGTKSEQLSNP
PI3Kα, sequence (P42336 whole entry, species assumed): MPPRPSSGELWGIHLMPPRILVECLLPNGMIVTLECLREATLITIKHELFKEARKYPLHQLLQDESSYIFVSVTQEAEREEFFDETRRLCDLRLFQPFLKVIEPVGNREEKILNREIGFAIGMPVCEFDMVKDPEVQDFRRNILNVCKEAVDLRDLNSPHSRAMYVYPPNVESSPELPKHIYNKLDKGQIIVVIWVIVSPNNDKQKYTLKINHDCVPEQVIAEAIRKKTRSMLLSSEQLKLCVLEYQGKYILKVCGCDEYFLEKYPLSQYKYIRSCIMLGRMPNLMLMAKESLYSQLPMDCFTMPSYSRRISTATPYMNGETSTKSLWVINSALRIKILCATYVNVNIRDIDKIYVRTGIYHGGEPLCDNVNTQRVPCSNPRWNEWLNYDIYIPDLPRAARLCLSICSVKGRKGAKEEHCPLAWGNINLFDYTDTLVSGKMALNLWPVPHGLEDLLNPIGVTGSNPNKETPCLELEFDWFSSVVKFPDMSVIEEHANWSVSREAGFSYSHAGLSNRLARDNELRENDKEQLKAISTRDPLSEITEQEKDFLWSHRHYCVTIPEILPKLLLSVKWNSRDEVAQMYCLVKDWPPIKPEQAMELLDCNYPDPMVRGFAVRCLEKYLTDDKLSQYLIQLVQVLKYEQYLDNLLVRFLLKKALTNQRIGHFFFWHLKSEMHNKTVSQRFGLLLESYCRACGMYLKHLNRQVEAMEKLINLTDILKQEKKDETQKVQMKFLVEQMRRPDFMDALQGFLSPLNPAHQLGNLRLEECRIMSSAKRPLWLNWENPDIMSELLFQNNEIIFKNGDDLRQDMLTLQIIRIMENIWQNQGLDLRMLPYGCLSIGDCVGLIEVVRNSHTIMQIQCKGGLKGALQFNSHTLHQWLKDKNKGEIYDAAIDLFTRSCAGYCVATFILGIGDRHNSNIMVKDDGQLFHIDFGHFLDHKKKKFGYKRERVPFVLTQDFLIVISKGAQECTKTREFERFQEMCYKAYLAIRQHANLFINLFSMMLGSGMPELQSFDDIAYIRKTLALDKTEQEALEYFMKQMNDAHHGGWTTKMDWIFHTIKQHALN
PI3Kα, sequence (P27986 whole entry partner, species assumed): as the sequence (P27986 whole entry partner, species assumed) above
PI3Kβ, sequence (P42338 whole entry, species assumed): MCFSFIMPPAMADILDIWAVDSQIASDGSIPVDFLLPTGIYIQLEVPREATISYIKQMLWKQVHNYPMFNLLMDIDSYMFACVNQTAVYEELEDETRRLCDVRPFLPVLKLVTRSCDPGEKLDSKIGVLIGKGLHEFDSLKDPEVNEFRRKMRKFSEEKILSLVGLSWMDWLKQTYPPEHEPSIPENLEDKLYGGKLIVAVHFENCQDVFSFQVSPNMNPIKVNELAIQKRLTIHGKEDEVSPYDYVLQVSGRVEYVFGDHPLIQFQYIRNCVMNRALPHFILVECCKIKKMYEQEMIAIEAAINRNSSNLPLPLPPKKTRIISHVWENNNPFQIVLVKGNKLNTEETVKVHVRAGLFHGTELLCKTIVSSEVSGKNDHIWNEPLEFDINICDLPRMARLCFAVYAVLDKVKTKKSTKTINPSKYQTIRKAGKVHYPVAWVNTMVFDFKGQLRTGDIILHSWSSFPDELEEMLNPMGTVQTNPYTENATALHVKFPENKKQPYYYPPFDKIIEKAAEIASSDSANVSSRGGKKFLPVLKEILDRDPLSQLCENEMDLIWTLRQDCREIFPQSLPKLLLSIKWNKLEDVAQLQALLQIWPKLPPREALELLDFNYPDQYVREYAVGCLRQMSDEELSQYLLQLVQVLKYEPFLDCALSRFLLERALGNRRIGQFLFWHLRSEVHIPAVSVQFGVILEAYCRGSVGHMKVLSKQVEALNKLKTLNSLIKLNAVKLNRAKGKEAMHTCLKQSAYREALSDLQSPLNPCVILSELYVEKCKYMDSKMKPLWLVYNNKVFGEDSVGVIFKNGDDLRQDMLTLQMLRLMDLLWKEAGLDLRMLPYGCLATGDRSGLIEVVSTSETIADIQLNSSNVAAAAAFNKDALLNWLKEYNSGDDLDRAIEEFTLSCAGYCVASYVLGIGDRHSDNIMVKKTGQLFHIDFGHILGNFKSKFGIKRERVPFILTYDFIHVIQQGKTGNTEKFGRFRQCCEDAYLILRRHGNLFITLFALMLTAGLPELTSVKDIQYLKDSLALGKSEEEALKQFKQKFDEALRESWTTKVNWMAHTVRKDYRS
PI3Kβ, sequence (P27986 whole entry partner, species assumed): as the sequence (P27986 whole entry partner, species assumed) above

IC50 (PI3Kδ)	IC50 (HDAC6)	IC50 (HDAC1)	IC50 (HDAC2)	IC50 (PI3Kα)	IC50 (PI3Kβ)	IC50 (PI3Kγ)	SMILES	clinical benefit in clinical studies [1]	safety profile in clinical studies [1]
10 to 100 nM	10 to 100 nM	100 to 1000 nM					COc1ncc(-c2nc(N3CCOCC3)nc3c(CNc4ccc(C(=O)NO)cc4F)cc(F)cc23)cc1NS(C)(=O)=O [Compound 36]		
≤ 10 nM	10 to 100 nM	≤ 10 nM					COc1ncc(-c2nc(N3CCOCC3)nc3c(CNc4ncc(C(=O)NO)cc4F)cc(F)cc23)cc1NS(C)(=O)=O [Compound 35]		
10 to 100 nM	100 to 1000 nM	1000 to 10000 nM					COc1ncc(-c2nc(N3CCOCC3)nc3c(CN4CCc5cc(C(=O)NO)cc(F)c5C4)cc(F)cc23)cc1NS(C)(=O)=O [Compound 43]		
10 to 100 nM	10 to 100 nM	100 to 1000 nM	100 to 1000 nM				COc1ncc(-c2nc(N3CCOCC3)nc3c(OC4CCN(c5cc(C(=O)NO)no5)CC4)cc(F)cc23)cc1NS(C)(=O)=O [Compound 44]		
100 to 1000 nM	100 to 1000 nM	1000 to 10000 nM					COc1ncc(-c2nc(N3CCOCC3)nc3c(OC4CCC(c5ccc(C(=O)NO)cc5F)CC4)cc(F)cc23)cc1NS(C)(=O)=O (stereo not drawn) [Compound 41]		
10 to 100 nM	100 to 1000 nM	1000 to 10000 nM					COc1ncc(-c2nc(N3CCOCC3)nc3c(OC4CCN(c5c(F)cc(C(=O)NO)cc5F)CC4)cc(F)cc23)cc1NS(C)(=O)=O [Compound 42]		
1000 to 10000 nM	10 to 100 nM	100 to 1000 nM	1000 to 10000 nM				COc1ncc(-c2nc(N3CCOCC3)nc3c(OCc4ncc(C(=O)NO)cc4F)cc(F)cc23)cc1NS(C)(=O)=O [Compound 45]		
≤ 10 nM	> 10000 nM			100 to 1000 nM	100 to 1000 nM	> 10 µM	COc1ncc(-c2nc(N3CCOCC3)nc3c(CN4CCC(C(C)(C)O)CC4)cc(F)cc23)cc1NS(C)(=O)=O [YY-20394, N-(5-(6-fluoro-8-((4-(2-hydroxypropyl-2-yl)piperidin-1-yl)methyl)-2-morpholine-quinazolin-4-yl)-2-methoxypyridin-3-yl)methanesulfonamide, reference compound]	clinical benefit	favorable safety profile
